Experimental data published in ChEMBL document CHEMBL3865849, “Development of N-(4-Phenoxyphenyl)benzenesulfonamide Derivatives as Novel Nonsteroidal Progesterone Receptor Antagonists” (ACS Med Chem Lett, 2016).

Target: Androgen receptor (Mus musculus) (UniProt P19091)
Assay: Antagonist activity at androgen receptor in mouse SC-3 cells assessed as inhibition of DHT-induced cell growth at 1 uM co-treated with DHT measured after 3 days by CCK8 assay

Sequence of Androgen receptor (Mus musculus) (P19091 whole entry, looked up): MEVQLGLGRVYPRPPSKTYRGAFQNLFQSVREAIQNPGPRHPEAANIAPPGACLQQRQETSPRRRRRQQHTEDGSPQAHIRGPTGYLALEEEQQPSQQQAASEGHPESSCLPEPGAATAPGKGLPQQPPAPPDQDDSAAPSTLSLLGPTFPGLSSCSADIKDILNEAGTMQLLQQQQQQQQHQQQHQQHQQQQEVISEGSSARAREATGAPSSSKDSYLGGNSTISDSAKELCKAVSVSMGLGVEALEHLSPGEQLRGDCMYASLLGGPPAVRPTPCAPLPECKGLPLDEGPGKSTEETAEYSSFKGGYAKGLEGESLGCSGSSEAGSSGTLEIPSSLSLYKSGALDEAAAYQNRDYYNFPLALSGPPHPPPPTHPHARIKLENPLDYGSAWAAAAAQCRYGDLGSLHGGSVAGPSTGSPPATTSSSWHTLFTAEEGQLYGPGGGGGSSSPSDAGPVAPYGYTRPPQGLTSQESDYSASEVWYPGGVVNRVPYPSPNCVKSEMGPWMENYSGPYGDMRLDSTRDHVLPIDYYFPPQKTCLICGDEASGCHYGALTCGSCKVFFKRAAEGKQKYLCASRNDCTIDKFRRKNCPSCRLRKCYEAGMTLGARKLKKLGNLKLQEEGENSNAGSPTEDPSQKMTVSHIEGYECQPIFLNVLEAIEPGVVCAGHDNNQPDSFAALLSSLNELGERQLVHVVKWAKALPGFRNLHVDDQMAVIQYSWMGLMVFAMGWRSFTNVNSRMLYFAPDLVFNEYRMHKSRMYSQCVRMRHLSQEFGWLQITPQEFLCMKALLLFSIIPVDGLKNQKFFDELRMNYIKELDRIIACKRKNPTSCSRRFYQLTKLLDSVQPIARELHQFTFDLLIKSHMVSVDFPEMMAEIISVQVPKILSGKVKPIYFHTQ

Work on `O=S(=O)(Nc1ccc(Oc2ccccc2)cc1)c1cccc(Cl)c1` yielded an inhibition of 8.4%.
